Results taken from patent publication US20220274954A1, “SUBSTITUTED N-PHENYL-N-AMINOUARCILS AND SALTS THEREOF AND USE THEREOF AS HERBICIDAL AGENTS” (Bayer Aktiengesellschaft, priority 2019, published 2022).

Columns and labels:
Assay type in all cases: in vivo
Setaria viridis = assay: Post-emergence herbicidal action; conditions: 504 h, read-out: Setaria viridis (efficacy in %); for pest or weed control at 5 g/ha: application rate 5 g/ha; for pest or weed control at 20 g/ha: application rate 20 g/ha
Description: (§1) Seeds of monocotyledonous and dicotyledonous weeds and crop plants were placed in sandy loam in plastic or wood-fiber pots, covered with soil and cultivated in a greenhouse under controlled growth conditions. 2 to 3 weeks after sowing, the test plants were treated at the one-leaf stage. The compounds of the invention, formulated in the form of wettable powders (WP) or as emulsion concentrates (EC), were then sprayed onto the green parts of the plants as aqueous suspension or emulsion with addition of 0.5% additive at a water application rate of […] (converted). After the test plants had been kept in the greenhouse under optimum growth conditions for about 3 weeks, the activity of the preparations was rated visually in comparison to untreated controls. For example, 100% activity=the plants have died, 0% activity=like control plants. Tables A1 to A14 below show the effects of selected compounds of the general formula (I) according to Tables I.1 to I.34 on various harmful plants and at an application rate corresponding to 20 g/ha and less, which were obtained by the experimental procedure mentioned above.

Veronica persica = assay: Post-emergence herbicidal action; conditions: for pest or weed control at 5 g/ha / pest or weed control at 20 g/ha: Veronica persica, 504 h, read-out: Veronica persica (efficacy in %)
Description: as §1

Matricaria inodora = assay: Post-emergence herbicidal action; conditions: for pest or weed control at 5 g/ha / pest or weed control at 20 g/ha: Tripleurospermum inodorum, 504 h, read-out: Matricaria inodora (efficacy in %); for pest or weed control at 5 g/ha: application rate 5 g/ha
Description: as §1

Abutilon theophrasti = assay: Post-emergence herbicidal action; conditions: for pest or weed control at 5 g/ha / pest or weed control at 20 g/ha: Abutilon theophrasti, 504 h, read-out: Abutilon theophrasti (efficacy in %)
Description: as §1

Amaranthus retroflexus = assay: Post-emergence herbicidal action; conditions: for pest or weed control at 5 g/ha / pest or weed control at 20 g/ha: Amaranthus retroflexus, 504 h, read-out: Amaranthus retroflexus (efficacy in %)
Description: as §1

Alopecurus myosuroides = assay: Post-emergence herbicidal action
Description: as §1

Polygonum convolvulus = assay: Post-emergence herbicidal action; conditions: Fallopia convolvulus, 504 h, read-out: Polygonum convolvulus (efficacy in %); for pest or weed control at 20 g/ha: application rate 20 g/ha
Description: as §1

Viola tricolor = assay: Post-emergence herbicidal action; conditions: for pest or weed control at 5 g/ha / pest or weed control at 20 g/ha: Viola tricolor, 504 h, read-out: Viola tricolor (efficacy in %)
Description: as §1

Digitaria sanguinalis = assay: Post-emergence herbicidal action; conditions: 504 h, read-out: Digitaria sanguinalis (efficacy in %); for pest or weed control at 20 g/ha: application rate 20 g/ha
Description: as §1

Pharbitis purpurea = assay: Post-emergence herbicidal action; conditions: for pest or weed control at 5 g/ha / pest or weed control at 20 g/ha: Ipomoea purpurea, 504 h, read-out: Pharbitis purpurea (efficacy in %)
Description: as §1

Echinochloa crus-galli = assay: Post-emergence herbicidal action; conditions: for pest or weed control at 5 g/ha / pest or weed control at 20 g/ha: Echinochloa crus-galli, 504 h, read-out: Echinochloa crus-galli (efficacy in %)
Description: as §1

Triticum aestivum = assay: Post-emergence crop plant compatibility
Description: as §1, with “plants.” for “plants. Tables A1 to A14 below show the effects of selected compounds of the general formula (I) according to Tables I.1 to I.34 on various harmful plants and at an application rate corresponding to 20 g/ha and less, which were obtained by the experimental procedure mentioned above.”
(§2) Here, the observed effects on selected crop plants are stated in comparison to the untreated controls (values in %).

Oryza sativa = assay: Post-emergence crop plant compatibility
Description: as §1, with “plants.” for “plants. Tables A1 to A14 below show the effects of selected compounds of the general formula (I) according to Tables I.1 to I.34 on various harmful plants and at an application rate corresponding to 20 g/ha and less, which were obtained by the experimental procedure mentioned above.”
as §2

Zea mays = assay: Post-emergence crop plant compatibility; conditions: application rate 5 g/ha
Description: as §1, with “plants.” for “plants. Tables A1 to A14 below show the effects of selected compounds of the general formula (I) according to Tables I.1 to I.34 on various harmful plants and at an application rate corresponding to 20 g/ha and less, which were obtained by the experimental procedure mentioned above.”
as §2

Avena fatua = assay: Post-emergence herbicidal action; conditions: application rate 20 g/ha
Description: as §1

Compound | pest or weed control at 5 g/ha (Setaria viridis) | pest or weed control at 20 g/ha (Setaria viridis) | pest or weed control at 5 g/ha (Veronica persica; application rate 5 g/ha) | pest or weed control at 20 g/ha (Veronica persica; application rate 20 g/ha) | pest or weed control at 5 g/ha (Matricaria inodora) | pest or weed control at 20 g/ha (Matricaria inodora; application rate 20 g/ha) | pest or weed control at 5 g/ha (Abutilon theophrasti; application rate 5 g/ha) | pest or weed control at 20 g/ha (Abutilon theophrasti; application rate 20 g/ha) | pest or weed control at 5 g/ha (Amaranthus retroflexus; application rate 5 g/ha) | pest or weed control at 20 g/ha (Amaranthus retroflexus; application rate 20 g/ha) | Alopecurus myosuroides (efficacy in %) (Alopecurus myosuroides; application rate 5 g/ha) | Alopecurus myosuroides (efficacy in %) (Alopecurus myosuroides; application rate 20 g/ha) | pest or weed control at 20 g/ha (Polygonum convolvulus) | pest or weed control at 5 g/ha (Viola tricolor; application rate 5 g/ha) | pest or weed control at 20 g/ha (Viola tricolor; application rate 20 g/ha) | pest or weed control at 20 g/ha (Digitaria sanguinalis) | pest or weed control at 5 g/ha (Pharbitis purpurea; application rate 5 g/ha) | pest or weed control at 20 g/ha (Pharbitis purpurea; application rate 20 g/ha) | Triticum aestivum (efficacy in %) (Triticum aestivum; application rate 1.25 g/ha) | Oryza sativa (efficacy in %) (Oryza sativa; application rate 5 g/ha) | further results
CCCCOC(=O)COc1ncccc1Sc1cc(-n2c(=O)cc(C(F)(F)F)n(N)c2=O)c(F)cc1Cl [I.1-447, n-Butyl {[3-({5-[3-amino-2,6-dioxo-4-(trifluoromethyl)-3,6-dihydropyrimidin-1(2H)-yl]-2-chloro-4-fluorophenyl}sulfanyl)pyridin-2-yl]oxy}acetate] | 100% | 100% | 100% | 100% | 100% | 100% | 100% | 100% | 100% | 100% | 80% | 90% | 100% | 100% | 100% | 100% | 100% | 100% | 10% | 10% | pest or weed control at 5 g/ha (Polygonum convolvulus; application rate 5 g/ha): 100%; pest or weed control at 5 g/ha (Digitaria sanguinalis; application rate 5 g/ha): 100%; pest or weed control at 5 g/ha (Echinochloa crus-galli; application rate 5 g/ha): 100%; pest or weed control at 20 g/ha (Echinochloa crus-galli; application rate 20 g/ha): 100%; Oryza sativa (efficacy in %) (Oryza sativa; application rate 1.25 g/ha): 0%
CCCCCOC(=O)COc1ncccc1Sc1cc(-n2c(=O)cc(C(F)(F)F)n(N)c2=O)c(F)cc1Cl [I.1-448, n-Pentyl {[3-({5-[3-amino-2,6-dioxo-4-(trifluoromethyl)-3,6-dihydropyrimidin-1(2H)-yl]-2-chloro-4-fluorophenyl}sulfanyl)pyridin-2-yl]oxy}acetate] | 80% | 100% | 80% | 80% |  |  | 80% | 80% | 100% | 100% |  |  | 100% | 100% | 100% | 100% |  | 100% | 0% | 0% | Triticum aestivum (efficacy in %) (Triticum aestivum; application rate 5 g/ha): 10%; Zea mays (efficacy in %) (Zea mays): 20%
COCCOCCOC(=O)COc1ncc(F)cc1Sc1cc(-n2c(=O)cc(C(F)(F)F)n(N)c2=O)c(F)cc1Cl [I.31-23, 2-(2-Methoxyethoxy)ethyl {[3-({5-[3-amino-2,6-dioxo-4-(trifluoromethyl)-3,6-dihydropyrimidin-1(2H)-yl]-2-chloro-4-fluorophenyl}sulfanyl)-5-fluoropyridin-2-yl]oxy}acetate] |  |  | 100% | 100% | 100% | 100% | 100% | 100% | 100% | 100% |  | 100% |  | 100% | 100% |  | 100% | 100% |  | 20% | Avena fatua (efficacy in %) (Avena fatua): 80%; pest or weed control at 5 g/ha (Echinochloa crus-galli; application rate 5 g/ha): 80%; pest or weed control at 20 g/ha (Echinochloa crus-galli; application rate 20 g/ha): 100%
CCOC(=O)COc1ncc(F)cc1Sc1cc(-n2c(=O)cc(C(F)(F)F)n(N)c2=O)c(F)cc1Cl [I.31-442] |  |  |  |  |  |  |  |  |  |  | 80% | 90% |  |  |  |  |  |  | 10% | 10% | Veronica persica (efficacy in %) (Veronica persica; application rate 5 g/ha): 100%; Veronica persica (efficacy in %) (Veronica persica; application rate 20 g/ha): 100%; Matricaria inodora (efficacy in %) (Matricaria inodora; application rate 20 g/ha): 100%; Abutilon theophrasti (efficacy in %) (Abutilon theophrasti; application rate 5 g/ha): 100%; Abutilon theophrasti (efficacy in %) (Abutilon theophrasti; application rate 20 g/ha): 100%; Amaranthus retroflexus (efficacy in %) (Amaranthus retroflexus; application rate 5 g/ha): 100%; Amaranthus retroflexus (efficacy in %) (Amaranthus retroflexus; application rate 20 g/ha): 100%; Viola tricolor (efficacy in %) (Viola tricolor; application rate 5 g/ha): 100%; Viola tricolor (efficacy in %) (Viola tricolor; application rate 20 g/ha): 100%; Pharbitis purpurea (efficacy in %) (Pharbitis purpurea; application rate 5 g/ha): 80%; Pharbitis purpurea (efficacy in %) (Pharbitis purpurea; application rate 20 g/ha): 100%; Echinochloa crus-galli (efficacy in %) (Echinochloa crus-galli; application rate 5 g/ha): 90%; Echinochloa crus-galli (efficacy in %) (Echinochloa crus-galli; application rate 20 g/ha): 90%; Triticum aestivum (efficacy in %) (Triticum aestivum; application rate 5 g/ha): 20%; Oryza sativa (efficacy in %) (Oryza sativa; application rate 1.25 g/ha): 0%
